Data taken from US6235493A, “Amino acid substituted-cresyl violet, synthetic fluorogenic substrates for the analysis of agents in individual in vivo cells or tissue” (priority 1998, dated 2001).

Columns and labels:
[1] = target: T1, dipeptidyl peptidase IV (DPPIV) (CD26) (Rattus norvegicus, UniProt P14740); assay: cell-based; format: cell-based; conditions: for mode of inhibition of DPPIV: individual living rat hepatocytes, image analysis
T1 construct: individual freshly isolated living rat hepatocytes; endogenous in cells; host or cells: hepatocytes freshly isolated from livers of male Wistar rats
T1 sequence (P14740 whole entry): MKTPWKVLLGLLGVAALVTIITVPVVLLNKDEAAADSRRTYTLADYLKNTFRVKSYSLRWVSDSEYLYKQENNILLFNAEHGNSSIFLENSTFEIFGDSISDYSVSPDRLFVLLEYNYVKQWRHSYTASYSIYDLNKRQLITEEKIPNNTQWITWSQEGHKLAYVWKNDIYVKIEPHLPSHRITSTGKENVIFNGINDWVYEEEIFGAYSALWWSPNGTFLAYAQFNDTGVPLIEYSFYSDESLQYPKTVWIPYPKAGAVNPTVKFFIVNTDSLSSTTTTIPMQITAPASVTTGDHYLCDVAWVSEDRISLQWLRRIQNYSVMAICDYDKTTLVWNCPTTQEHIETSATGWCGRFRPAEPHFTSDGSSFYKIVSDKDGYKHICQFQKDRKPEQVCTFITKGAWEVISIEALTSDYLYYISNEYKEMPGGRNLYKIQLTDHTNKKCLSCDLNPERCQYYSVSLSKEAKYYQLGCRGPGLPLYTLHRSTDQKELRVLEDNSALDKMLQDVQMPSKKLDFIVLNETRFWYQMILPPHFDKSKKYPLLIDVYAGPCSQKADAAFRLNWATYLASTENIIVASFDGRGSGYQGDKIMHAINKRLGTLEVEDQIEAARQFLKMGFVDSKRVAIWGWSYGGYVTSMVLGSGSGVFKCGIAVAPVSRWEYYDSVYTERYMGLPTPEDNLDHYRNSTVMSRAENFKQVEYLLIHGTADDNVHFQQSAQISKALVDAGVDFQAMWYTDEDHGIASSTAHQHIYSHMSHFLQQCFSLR
Description: Hepatocytes were isolated by collagenase perfusion of livers of male Wistar rats (200-250 g; HSD Animal Farm, Zeist, The Netherlands) after 24 h of starvation as described previously (30). The animals were exposed to a controlled dark-light cycle (light: 7:00 a.m.-7:00 p.m.) throughout the acclimatization period of at least 1 week. Before starvation, animals had free access to food (standard chow diet; Hope Farms, Woerden, The Netherlands) and water. The animals had always free access to water. During operation, the animals were under Nembutal anaesthesia. Animal care was performed according to the guidelines of the University of Amsterdam. Hepatocytes (5-10 mg dry mass/ml) were kept in Krebs-Henseleit bicarbonate medium containing 1.3 mM Ca^2+, 10 mM sodium Hepes (pH 7.4), 20 mM glucose and 1 mM octanoate on ice until enzyme assays. Homogenates were prepared by freezing cell suspensions in liquid nitrogen and subsequent thawing. One volume of homogenates and 10 volumes of 20 mM Tris-HCI buffer (pH 7.4) containing 1% (v/v) Triton X-100 were mixed and incubated at 4° C. under constant stirring for 60 min. One part of these homogenates was used for the determination of DPPIV activity. Another part was centrifuged (40,000 x g, 4° C., 20 min) and the supernatants were used as membrane fractions for the determination of DPPIV activity.
Analysis of DPPIV Activity
DPPIV activity was determined in hepatocytes using 6 approaches. Activity was determined in living hepatocytes with confocal scanning laser microscopy, image processing and analysis, flow cytometry, and fluorometry. Fluorometry was also used for the determination of activity in homogenates of hepatocytes and in membrane fractions of hepatocytes. Incubations were started at t=0 by adding an aliquot of 60 μl hepatocytes to 3 ml Krebs-Henseleit medium containing 0-50 μM (Ala-Pro)^2 -cresyl violet in the presence or absence of 0-50 μM Ala-Pip^p (OPh-4-Cl)2 (Enzyme Systems Products), which is a selective DPPIV inhibitor (31A,32A). Substrate and inhibitor were dissolved first in dimethylsulfoxide. The final concentration of dimethylsulfoxide in the incubation medium was 0.5% (v/v). Incubations were carried out at 20° C. Confocal scanning laser microscopy was performed after 100 μl of an assay medium containing hepatocytes was brought into a well formed by a stainless steel ring attached to a glass slide (33A). Images of cells were captured in time with a Leica confocal scanning laser microscope fitted to a Leica Fluovert inverted microscope equipped with a PL APO oil-immersion objective (63×, NA 1.40). Excitation was performed at 568 nm and fluorescence was captured at >595 nm. The pinhole aperture was set to provide an optimized image (34A). Cells were subjected to optical serial sectioning after each 60 sec of incubation up to 300 sec. Images in the X-Y plane were recorded with intervals of 0.5 μm in the Z direction. Each optical section was averaged 8 times. Images were recorded din a 512×512 pixel format. The size of each pixel represented 0.015 μm^2 in the object. Confocal data stacks of 20-30 optical sections were processed with standard Leica software package.
Image analysis was performed by transferring an aliquot of 100, μl of an incubation medium containing hepatocytes into an incubation chamber that consisted of an object glass and a cover glass separated by a spacer made of adhesion tape with a thickness of […]. The object glass was set on the stage of a fluorescencee microscope (Leitz Dialux 20, Wetzlar, Germany) with a ×25 objective (NA 0.75). A drop of medium was placed beside the cover glass and the chamber became filled by capillary forces in a few seconds. […]

[2] = test system: dipeptidyl peptidase IV (DPPIV); assay: DPPIV activity in membrane fractions of hepatocytes (fluorometry); format: biochemical, rat; conditions: membrane fractions of the same hepatocyte suspensions
Description: Hepatocytes were isolated by collagenase perfusion of livers of male Wistar rats (200-250 g; HSD Animal Farm, Zeist, The Netherlands) after 24 h of starvation as described previously (30). The animals were exposed to a controlled dark-light cycle (light: 7:00 a.m.-7:00 p.m.) throughout the acclimatization period of at least 1 week. Before starvation, animals had free access to food (standard chow diet; Hope Farms, Woerden, The Netherlands) and water. The animals had always free access to water. During operation, the animals were under Nembutal anaesthesia. Animal care was performed according to the guidelines of the University of Amsterdam. […]
DPPIV activity was determined in hepatocytes using 6 approaches. Activity was determined in living hepatocytes with confocal scanning laser microscopy, image processing and analysis, flow cytometry, and fluorometry. […] Excitation was performed at 568 nm and fluorescence was captured at >595 nm. […] Images in the X-Y plane were recorded with intervals of 0.5 μm in the Z direction. […] Images were recorded din a 512×512 pixel format. […]
Calibration was performed by measuring fluorescence of a series of solutions of 0-10 μM cresyl violet in Krebs-Henseleit medium. These solutions were also used to test the properties of cresyl violet for quantitative purposes. The depth of the incubation chamber was 24 μm and the size of the area measured 240×170 μm. […]

[3] = Fluorescence properties of cresyl violet (image analysis calibration); format: physicochemical
Description: Calibration was performed by measuring fluorescence of a series of solutions of 0-10 μM cresyl violet in Krebs-Henseleit medium. These solutions were also used to test the properties of cresyl violet for quantitative purposes. The depth of the incubation chamber was 24 μm and the size of the area measured 240×170 μm. The total volume that was measured was thus 0.001 μl. The amount of fluorescence captured by image analysis was linearly related with concentrations up to at least 10 μM when measured in a thin film of 24 μm which approximates the diameter of cells (FIG. 2A). Thus, cresyl violet has fluorescence properties that are necessary for quantitative fluorescence microscopy (36B). On the basis of FIG. 2A, it was calculated that 100 gray values corresponded with 6.7 fmoles cresyl violet. […] Flow cytometric analysis of production of cresyl violet in hepatorcytes was performed with a FAC-Star Plus (Becton and Dickinson, San Jose, Calif., USA) using the software program CellQuest (version 1.0; Becton and Dicksinson). Prior to analysis, cells were stained with the DNA dye Hoechst 3.3.3.4.2 (36 ,μg/ml; Hoechst Holland, Amsterdam, The Netherlands) for 30 min at 0° C. Analysis was started by established forward scatter and then substrate was added at t=0. Analysis was performed at a flow rate of 200 cells/sec. The parameters measured were time, forward scatter, fluorescence of Hoechst 3.3.3.4.2 dye (excitation at 350 nm, emission at 485 nm with a band width of 20 nm), and fluorescence of cresyl violet (excitation at 514 nm, emission at 630 nm with a band width of 22 nm). Filters were obtained from Becton and Dickenson. The power of the lasers was set at […]. Fluorometric analysis with time was carried out with a Perkin-Elmer LS 50 fluorescence spectrometer (Perkin-Elmer, Gouda, The Netherlands) under continuous magnetic stirring. Cuvettes with a light path of 1 cm were used. Excitation was performed at 591 nm with a slid width of 10 nm and emission was measured at 628 nm (slid width 10 nm). The first measurement was made at 5 sec after mixing cells and incubation medium.

[4] = Water solubility (stated); format: physicochemical; conditions: free cresyl violet; avoids accumulation around mitochondria

Compound: C[C@H](N)C(=O)N1CCCCC1P(=O)(Oc1ccc(Cl)cc1)Oc1ccc(Cl)cc1 (some centres unmarked) [Ala-Pip^p (OPh-4Cl)2, Ala-Pip^p (OPh-4-Cl)2]
- Ki [1]: 7 µM
- mode of inhibition of DPPIV [1]: selective competitive inhibitor
- mode of inhibition of DPPIV ([1]; listed as dipeptide phosphonate inhibitor): competitively

Compound: C[C@H](N)C(=O)N1CCC[C@H]1C(=O)NC1=CC2Oc3cc(NC(=O)[C@@H]4CCCN4C(=O)[C@H](C)N)ccc3N=C2c2ccccc21 (stereo partly drawn) [Ala-Pro-cresyl violet, [Ala-Pro]^2-cresyl violet]
- inverse relationship between Km and Vmax in membrane fractions [2]: lost
- Vmax in individual hepatocytes [1]: 4-16 nU
- Km ([1]; hepatocytes): 6 to 22 µM
- conversion rate in the rat with the highest Vmax and lowest Km vs rat with the lowest Vmax and highest Km ([1]; physiological substrate concentrations): 10- to 20 fold

Compound: N=c1cc2oc3cc(N)ccc3nc-2c2ccccc12 [cresyl violet]
- fading of fluorescence during measurements in time ([3]; FIG. 2B): Fading did not occur to any significant extent
- amount corresponding with 100 gray values ([3]; image analysis calibration, FIG. 2A): 6.7 fmol
- linearity of fluorescence with concentration (up to) ([3]; thin film of 24 μm, Krebs-Henseleit medium): at least 10 μM
- water solubility [4]: sufficiently water soluble
